From article doi:10.1101/2022.07.18.500363v1 (biorxiv, 2022)
Read-outs that look alike come from different tables or passages of the source.

Target: PL^pro (papain-like protease, domain of nsp3) (Severe acute respiratory syndrome coronavirus 2, UniProt P0DTD1)
Assay: fluorogenic short peptide protease assay, 384-well
Assay type: biochemical

Structure (SMILES) | IC50 [µM] | IC50 (read-out: IC50PLpro, short peptide substrate, 37 °C, 10-60 min preincubation) [µM]
CC1=NN(c2ccc(C)c(C)c2)C(=O)C1=NNc1cccc(-c2cccc(C(=O)O)c2)c1O [DDL-701, eltrombopag] | 13 | –
CC1=NN(c2ccc(C)c(C)c2)C(=O)/C1=N/Nc1cccc(-c2cccc(-c3nnn[nH]3)c2)c1O [DDL-713, thrombopoietin receptor agonist-1] | – | ~54
COc1cc(C(=O)NS(=O)(=O)c2ccccc2C)ccc1Cc1cn(C)c2ccc(NC(=O)OC3CCCC3)cc12 [DDL-715, zafirlukast] | ~24 | –
